Test results: US20160025717A1, “HYPOSIALYLATION DISORDERS” (THE UNITED STATES OF AMERICA, AS REPRESENTED BY THE …, priority 2013, published 2016)

Test system: GNE myopathy patients
Assay: Plasma T/ST ratio (T-antigen to monosialylated ST-antigen) by LC-MS/MS in treated GNE myopathy patients
Type: in vivo, human
Method: The quantification of the T/ST ratio was carried out using the O-glycan quantification methods disclosed in Liu et al., Mol Genet Metab 106, 442-454 (2012). Briefly, O-linked glycans from human serum or plasma total glycoproteins were released by sodium hydroxide with sodium borohydrate and desalted by ion-exchange column and then permethylated before the quantity of T-antigen and monosialyl ST-antigen was measured using LC-MS/MS method. Plasma samples from 40 normal controls were used to establish the normal range for the T/ST ratio at <0.056. A cut-off of 0.06 was used to diagnose hyposialylation of O-linked protein glycosylation in human plasma or serum.
O-glycans were released from plasma glycoproteins and prepared for analysis essentially as described by Carlson (J Biol Chem 243: 616-626, 1968; Liu et al. Mol Genet Metab 2012, 106, 442-454 (2012)), with modifications as described. An internal standard (1250 pmol raffinose in 5 μL) was added to 10 μL of plasma and […] for a final volume of 100 μL. Next, 100 μL of freshly prepared 2M […] in 0.1M sodium hydroxide was added to denature the serum proteins and release the O-glycans; the mixture was incubated at 45° C. for 16 hours to ensure complete reaction. The reaction was neutralized by drop wise addition of 1.6 mL of a 0.25M acetic acid-methanol solution, and the O-glycans were extracted in methanol. Finally, the extracted glycans were desalted through ion-exchange AG 50W-X8 resin (Bio-Rad, Hercules, Calif.) following the manufacture's instruction and lyophilized overnight. The dried samples were dissolved in DMSO for permethylation.
Both N-glycans and O-glycans were permethylated as previously described with minor modification (Guillard et al. Clin Chem 57, 593-602 (2011)). Briefly, four NaOH pellets (approximately 375 mg) were crushed in 10 ml anhydrous DMSO, 0.5 μL water, 0.4 ml of this slurry and 0.1 ml CH3I were added to the dried glycans and the mixture was shaken vigorously for one hour. The mixture was extracted five times sequentially with a mixture of 200 μL water and 600 μL chloroform. […]

| Structure (SMILES) | T/ST ratio (GNE myopathy patient NH00016, after three months without medication (after sialic acid)) | T/ST ratio (GNE myopathy patient NH00016, had received sialic acid one month before the test) | T/ST ratio (GNE myopathy patient SIA79 self-administering off-label ManNAc, cut-off 0.06) |
| --- | --- | --- | --- |
| CC(=O)N[C@@H]1C(O)C[C@](O)(C(=O)O)OC1[C@H](O)[C@H](O)CO (stereo in doubt) [sialic acid, 5-N-acetylneuraminic acid] | 0.7 | 0.05 |  |
| CC(=O)N[C@H]1[C@@H](O)[C@H](O)[C@@H](CO)O[C@H]1O [ManNAc, N-acetyl-D-mannosamine] |  |  | normal range |
